What follows are compounds tested on P. falciparum K1 (strain resistant to chloroquine and pyrimethamine), erythrocytic stages (assay: Plasmodium falciparum in vitro assay, [3H] hypoxanthine incorporation). Details: P. falciparum strain K1; [3H] hypoxanthine incorporation; read-out: IC50 (nM) on K1.
Assay type: cell-based
Procedure, shortened: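 K1 strain parasites grown in human red cells, 2.5% haematocrit, 0.3% parasitaemia, 37 °C, 4% CO2/3% O2; compounds in seven serial doubling dilutions.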

Compound | IC50
(S)-N-[1-Benzyl-2-oxo-2-(4-phenyl-piperidin-1-yl)-ethyl]-N-(4-pyrimidin-5-yl-benzyl)-3-(6-trifluoromethyl-pyridin-3-yl)-acrylamide [Example 49] | 43 nM

Same assay, conditions: Plasmodium falciparum, K1, P. falciparum strain K1; [3H] hypoxanthine incorporation; read-out: IC50 (nM) on K1

Compound | IC50
CN(Cc1ccc(N2CCCC2=O)cc1)C(=O)[C@H](Cc1ccccc1)N(Cc1ccc(N2CCOCC2)cc1)C(=O)C=Cc1ccc(C(F)(F)F)nc1 [Example 272] | 80 nM
CN(Cc1ccc(N2CCCCC2=O)cc1)C(=O)[C@H](Cc1ccccc1)N(Cc1ccc(N2CCOCC2)cc1)C(=O)C=Cc1ccc(C(F)(F)F)nc1 [Example 274] | 63 nM

More lines, now with the values ahead:

IC50 | Compound
100 nM | CC(=O)Nc1ccc(CN(C)C(=O)[C@H](Cc2ccccc2)N(Cc2ccc(N3CCOCC3)cc2)C(=O)C=Cc2ccc(C(F)(F)F)nc2)cc1 [Example 271]
75 nM | CN(Cc1ccc(NC(=O)C2CC2)cc1)C(=O)[C@H](Cc1ccccc1)N(Cc1ccc(N2CCOCC2)cc1)C(=O)C=Cc1ccc(C(F)(F)F)nc1 [Example 273, (S)-Cyclopropanecarboxylic acid (4-{[methyl-(2-{(4-morpholin-4-yl-benzyl)-[3-(6-trifluoromethyl-pyridin-3-yl)-acryloyl]-amino}-3-phenyl-propionyl)-amino]-methyl}-phenyl)-amide]
59 nM | CN(Cc1ccc(NC(=O)c2ccccc2)cc1)C(=O)[C@H](Cc1ccccc1)N(Cc1ccc(N2CCOCC2)cc1)C(=O)C=Cc1ccc(C(F)(F)F)nc1 [Example 275, (S)-N-(4-{[Methyl-(2-{(4-morpholin-4-yl-benzyl)-[3-(6-trifluoromethyl-pyridin-3-yl)-acryloyl]-amino}-3-phenyl-propionyl)-amino]-methyl}-phenyl)-benzamide]
65 nM | CC(=O)N(c1ccccc1)c1ccc(CN(C)C(=O)[C@H](Cc2ccccc2)N(Cc2ccc(N3CCOCC3)cc2)C(=O)C=Cc2ccc(C(F)(F)F)nc2)cc1 [Example 276]
47 nM | COCCNc1ccc(CN(C)C(=O)[C@H](Cc2ccccc2)N(Cc2ccc(N3CCOCC3)cc2)C(=O)C=Cc2ccc(C(F)(F)F)nc2)cc1 [Example 277]

Reference: patent US20110224210A1, “NOVEL BIS-AMIDES AS ANTI-MALARIAL AGENTS” (priority 2008, published 2011)
